Experimental data reported in PubChem BioAssay AID288 (DTP/NCI, 2004).
Values joined by “and” are separate entries in the source; they are usually repeats but may differ in a detail not shown here. Identical values can stand only once. Records with an inconclusive call do not appear.

Tested on: BDF1 mice, M5076 sarcoma s.c., survival/tumor T/C
Assay: NCI In Vivo Anticancer Drug Screen. Data for tumor model Sarcoma M5076 (subcutaneous) in B6D2F1 (BDF1) mice
Description: The antitumor activity of compounds was measured in mice bearing transplantable tumors. Survival or tumor size were measured and the results are expressed as the measurement made in the treated group (T) divided by the measurement made in the vehicle treated control group (C). The tumor model used in this assay is Sarcoma M5076 (subcutaneous) in B6D2F1 (BDF1) mice

[1] = endpoint: median survival time, dose: 50.0 mg/kg/injection, schedule: Q01DX009 (ip), vehicle: saline with Tween-80, higher = longer survival
[2] = endpoint: median survival time, dose: 100.0 mg/kg/injection, schedule: Q01DX009 (ip), vehicle: saline with Tween-80, higher = longer survival
[3] = endpoint: median survival time, dose: 200.0 mg/kg/injection, schedule: Q01DX009 (ip), vehicle: saline with Tween-80, higher = longer survival
[4] = endpoint: median tumor weight (est.), dose: 50.0 mg/kg/injection, schedule: Q01DX009 (ip), vehicle: saline with Tween-80, higher = larger tumour
[5] = endpoint: median tumor weight (est.), dose: 100.0 mg/kg/injection, schedule: Q01DX009 (ip), vehicle: saline with Tween-80, higher = larger tumour
[6] = endpoint: median tumor weight (est.), dose: 200.0 mg/kg/injection, schedule: Q01DX009 (ip), vehicle: saline with Tween-80, higher = larger tumour
[7] = endpoint: mean tumor weight, dose: 2.0 mg/kg/injection, schedule: Q02DX011 (ip), vehicle: saline, higher = larger tumour

Structure (SMILES): CN(C)S(=O)(=O)c1ccc(CCCCc2ccc(N3C(N)=NC(N)=NC3(C)C)cc2Cl)c(Cl)c1
- T/C (endpoint: median survival time, dose: 38.0 mg/kg/injection, schedule: Q01DX009 (ip), vehicle: saline with Tween-80, higher = longer survival): 100 % of control

Structure (SMILES): O=c1[nH]cc(F)c(=O)[nH]1
- T/C (endpoint: median survival time, dose: 6.25 mg/kg/injection, schedule: Q04DX006 (ip), vehicle: saline, higher = longer survival): 105 % of control
- T/C (endpoint: median survival time, dose: 12.5 mg/kg/injection, schedule: Q02DX033 (ip), vehicle: saline, higher = longer survival): 101 % of control
- T/C (endpoint: median survival time, dose: 12.5 mg/kg/injection, schedule: Q04DX006 (ip), vehicle: saline, higher = longer survival): 100 % of control
- T/C (endpoint: median survival time, dose: 25.0 mg/kg/injection, schedule: Q02DX033 (ip), vehicle: saline, higher = longer survival): 105 % of control
- T/C (endpoint: median survival time, dose: 25.0 mg/kg/injection, schedule: Q04DX006 (ip), vehicle: saline, higher = longer survival): 108 % of control
- T/C (endpoint: median survival time, dose: 50.0 mg/kg/injection, schedule: Q04DX006 (ip), vehicle: saline, higher = longer survival): 105 % of control

Structure (SMILES): CN(Cc1cnc2nc(N)nc(N)c2n1)c1ccc(C(=O)N[C@@H](CCC(=O)O)C(=O)O)cc1
- T/C (endpoint: median survival time, dose: 0.5 mg/kg/injection, schedule: Q04DX006 (ip), vehicle: saline, higher = longer survival): 97 % of control
- T/C (endpoint: median survival time, dose: 1.0 mg/kg/injection, schedule: Q04DX006 (ip), vehicle: saline, higher = longer survival): 106 % of control
- T/C (endpoint: median survival time, dose: 2.0 mg/kg/injection, schedule: Q04DX006 (ip), vehicle: saline, higher = longer survival): 97 % of control
- T/C (endpoint: median survival time, dose: 4.0 mg/kg/injection, schedule: Q04DX006 (ip), vehicle: saline, higher = longer survival): 108 % of control

Structure (SMILES): CCc1ccc(NC(=O)/C=C\C(=O)O)cc1
- T/C [1]: 86 % of control
- T/C [2]: 105 % of control
- T/C [3]: 91 % of control
- T/C [4]: 112 % of control
- T/C [5]: 85 % of control
- T/C [6]: 106 % of control

Structure (SMILES): COc1cc(COC(=O)Nc2ccccc2F)cc(OC)c1OC
- T/C [1]: 100 % of control
- T/C [2]: 103 % of control
- T/C [3]: 94 % of control
- T/C [4]: 99 % of control
- T/C [5]: 111 % of control
- T/C [6]: 98 % of control

Structure (SMILES): COC(=O)C[C@](O)(CCCC(C)(C)O)C(=O)O[C@@H]1C(OC)=C[C@]23CCCN2CCc2cc4c(cc2[C@H]13)OCO4
- T/C (endpoint: mean tumor weight, dose: 0.5 mg/kg/injection, schedule: Q02DX011 (ip), vehicle: saline, higher = larger tumour): 114 % of control
- T/C [7]: 37 % of control
- T/C (endpoint: median tumor weight (est.), dose: 0.5 mg/kg/injection, schedule: Q02DX011 (ip), vehicle: saline, higher = larger tumour): 77 % of control
- T/C (endpoint: median tumor weight (est.), dose: 2.0 mg/kg/injection, schedule: Q02DX011 (ip), vehicle: saline, higher = larger tumour): 34 % of control

Structure (SMILES): O=C1CC(Cl)(CS(F)(F)(F)(F)F)O1 (stereo unspecified)
- T/C [1]: 100 % of control
- T/C [4]: 56 % of control

Structure (SMILES): C[C@]12C=CC(=O)C=C1CC[C@@H]1[C@@H]2C(=O)C[C@@]2(C)[C@H]1CC[C@]2(O)C(=O)CO
- T/C (endpoint: mean tumor weight, dose: 12.5 mg/kg/injection, schedule: Q02DX011 (ip), vehicle: saline, higher = larger tumour): 82 % of control
- T/C (endpoint: mean tumor weight, dose: 25.0 mg/kg/injection, schedule: Q02DX011 (ip), vehicle: saline, higher = larger tumour): 52 % of control
- T/C (endpoint: mean tumor weight, dose: 50.0 mg/kg/injection, schedule: Q02DX011 (ip), vehicle: saline, higher = larger tumour): 59 % of control

Structure (SMILES): N[C@H](C(=O)O)[C@@H]1CC(Cl)=NO1
- T/C [7]: 2 % of control
- T/C (endpoint: median survival time, dose: 2.0 mg/kg/injection, schedule: Q01DX010 (ip), vehicle: saline, higher = longer survival): 165 % of control
- T/C (endpoint: median survival time, dose: 4.0 mg/kg/injection, schedule: Q01DX010 (ip), vehicle: saline, higher = longer survival): 177 % of control
- T/C (endpoint: median survival time, dose: 8.0 mg/kg/injection, schedule: Q01DX010 (ip), vehicle: saline, higher = longer survival): 178 % of control
- T/C (endpoint: median survival time, dose: 16.0 mg/kg/injection, schedule: Q01DX010 (ip), vehicle: saline, higher = longer survival): 90 % of control
- T/C (endpoint: median survival time, dose: 32.0 mg/kg/injection, schedule: Q04DX005 (ip), vehicle: saline, higher = longer survival): 171 % of control and 176 % of control
- T/C (endpoint: median survival time, dose: 64.0 mg/kg/injection, schedule: Q04DX005 (ip), vehicle: saline, higher = longer survival): 184 % of control and 186 % of control
- T/C (endpoint: median survival time, dose: 128.0 mg/kg/injection, schedule: Q04DX005 (ip), vehicle: saline, higher = longer survival): 193 % of control and 195 % of control

Structure (SMILES): COc1ccc(/C=N/NC(=O)C(=O)Nc2ccc(Cl)c([N+](=O)[O-])c2)cc1OC
- T/C [1]: 97 % of control
- T/C [2]: 88 % of control
- T/C [3]: 97 % of control
- T/C [4]: 96 % of control
- T/C [5]: 90 % of control
- T/C [6]: 86 % of control
